Data from patent US7053234B2 (Amgen Inc., priority 2000, dated 2006).
Converted amounts (≈) assume the structure as drawn. Read-outs that look alike come from different tables or passages of the source.

Legend:
B. su = test: MIC determination, B. su; type: cell-based; conditions: Table 1, 16 hours at 37° C. in LB medium, read-out: B. su (bacterial MIC)
Description: (§1) For MIC determinations for selected bacteria, log phase growing bacteria are re-suspended at 1×10^5 bacteria per mL in LB medium. The compound is added and two-fold dilutions are made. The final volume in the 96-well plate is about 100 uL. The plate is incubated at 37° C. in the dark with shaking. After 16 hours of incubation, growth is monitored by reading A600 or by visual inspection. MIC is defined as the minimum concentration of drug resulting in inhibition of visible growth of bacterial under the conditions described (above) in National Committee for Clinical Laboratory Standards 1993. Methods for dilution antimicrobial susceptibility tests for bacteria that grow aerobically. Approved standard M7-A3; National Committee for Clinical Laboratory Standards: Villanova, Pa.

E. coli (tolC) = test: MIC determination, E. coli (tolC); type: cell-based; conditions: Escherichia coli
Description: as §1

[1] = target: T1, Sigma^70 saturated E. coli RNA Polymerase (Escherichia coli, UniProt P0A8T7+P0A8V2); test: RNA polymerase inhibition assay (E. coli enzyme); type: biochemical
T1 construct: purchased Epicenter
Description: The compounds of the present invention can be evaluated for antibacterial activity in a variety of assay formats known to those of skill in art. The specific assays used to select the most appropriate compound for use will typically depend on the targeted bacteria or infection. One common assay involves evaluation of the compounds as RNA polymerase inhibitors. In this assay, buffer (250 mM KCl, 5% Glycerol, 10 mM MgCl2, 0.1 mg/ml BSA) is combined with 6 mM B-M.E., PT5 DNA template, and 1.3 ug/rxn Sigma^70 saturated E. coli RNA Polymerase (Epicenter). The compound is then added in a manner not to exceed 5% DMSO. Nucleotide triphosphates are then added at the following concentration: 250 uM ATP, […] and UTP with 100 uM cold CTP and 50 uM alpha ^32P CTP. The mixture is incubated for 10 min at about 37° C. A [2×] loading buffer is added and the mixture is then run on a 6% urea denaturing PAGE until bromophenol blue reaches the edge of plate. The gel is soaked (about 20 minutes in 10% MeOH and 10% acetic acid, to remove urea), then dried (about 55 minutes at about 85° C. (BioRad Gel Drier)) and exposed to a Phospho Imaging Plate for 1 hour. The plate is then read on a Fujix Bas1000 Imaging System and quantified using MacBas v2.0 software. An IC50 (in uM) can be calculated as the concentration of a drug which reduces the enzyme activity to 50% of the control.

S. aureus = test: MIC determination, S. aureus; type: cell-based; conditions: Staphylococcus aureus
Description: The compound is added and two-fold dilutions are made. The final volume in the 96-well plate is about 100 uL. The plate is incubated at 37° C. in the dark with shaking. After 16 hours of incubation, growth is monitored by reading A600 or by visual inspection. […] Methods for dilution antimicrobial susceptibility tests for bacteria that grow aerobically. Approved standard M7-A3; National Committee for Clinical Laboratory Standards: Villanova, Pa.

RNA-pol S. aureus = RNA-pol S. aureus (Staphylococcus aureus, UniProt P47768+Q2G0N5); test: RNA polymerase inhibition assay (S. aureus enzyme); type: biochemical
Chain of RNA-pol S. aureus (Q2G0N5 whole entry): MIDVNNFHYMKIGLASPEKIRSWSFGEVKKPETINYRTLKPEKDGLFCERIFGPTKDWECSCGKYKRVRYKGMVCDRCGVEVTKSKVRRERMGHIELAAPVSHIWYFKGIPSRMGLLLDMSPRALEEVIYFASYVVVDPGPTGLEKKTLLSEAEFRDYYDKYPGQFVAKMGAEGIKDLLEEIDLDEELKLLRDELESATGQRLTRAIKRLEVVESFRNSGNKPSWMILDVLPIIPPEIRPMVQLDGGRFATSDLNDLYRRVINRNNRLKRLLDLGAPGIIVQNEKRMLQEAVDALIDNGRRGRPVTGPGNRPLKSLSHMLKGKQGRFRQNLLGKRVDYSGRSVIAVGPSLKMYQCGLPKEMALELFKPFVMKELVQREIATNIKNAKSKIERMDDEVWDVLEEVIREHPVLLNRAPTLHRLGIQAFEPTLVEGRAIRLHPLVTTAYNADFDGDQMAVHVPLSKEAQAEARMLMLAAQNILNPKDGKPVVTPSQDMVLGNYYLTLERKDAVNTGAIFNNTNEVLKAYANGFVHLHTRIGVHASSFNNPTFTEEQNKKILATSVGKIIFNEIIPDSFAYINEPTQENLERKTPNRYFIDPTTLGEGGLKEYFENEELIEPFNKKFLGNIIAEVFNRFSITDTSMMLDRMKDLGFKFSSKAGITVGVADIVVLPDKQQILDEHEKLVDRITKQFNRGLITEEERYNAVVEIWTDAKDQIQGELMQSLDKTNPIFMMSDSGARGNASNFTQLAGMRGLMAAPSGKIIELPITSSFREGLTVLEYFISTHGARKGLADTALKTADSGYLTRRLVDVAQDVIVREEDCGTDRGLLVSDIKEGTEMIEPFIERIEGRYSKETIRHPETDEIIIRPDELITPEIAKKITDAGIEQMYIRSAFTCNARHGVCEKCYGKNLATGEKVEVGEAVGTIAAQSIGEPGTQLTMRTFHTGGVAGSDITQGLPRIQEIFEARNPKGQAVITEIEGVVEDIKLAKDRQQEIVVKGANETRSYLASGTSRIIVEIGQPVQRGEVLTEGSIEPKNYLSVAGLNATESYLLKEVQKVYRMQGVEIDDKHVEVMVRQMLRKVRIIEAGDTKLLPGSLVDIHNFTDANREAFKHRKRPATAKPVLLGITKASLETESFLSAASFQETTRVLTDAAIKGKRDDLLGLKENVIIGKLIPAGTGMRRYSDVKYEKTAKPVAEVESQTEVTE
Chain of RNA-pol S. aureus (Q2FW32 whole entry, further chain): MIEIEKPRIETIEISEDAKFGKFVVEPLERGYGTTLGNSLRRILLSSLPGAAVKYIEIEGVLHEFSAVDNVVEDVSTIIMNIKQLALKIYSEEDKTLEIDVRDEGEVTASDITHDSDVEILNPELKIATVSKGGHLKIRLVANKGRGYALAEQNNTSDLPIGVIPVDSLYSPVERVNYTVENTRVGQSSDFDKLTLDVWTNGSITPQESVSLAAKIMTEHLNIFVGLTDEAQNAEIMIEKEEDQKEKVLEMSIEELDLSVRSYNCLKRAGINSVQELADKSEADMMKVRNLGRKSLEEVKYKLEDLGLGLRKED
Chain of RNA-pol S. aureus (P47768 whole entry): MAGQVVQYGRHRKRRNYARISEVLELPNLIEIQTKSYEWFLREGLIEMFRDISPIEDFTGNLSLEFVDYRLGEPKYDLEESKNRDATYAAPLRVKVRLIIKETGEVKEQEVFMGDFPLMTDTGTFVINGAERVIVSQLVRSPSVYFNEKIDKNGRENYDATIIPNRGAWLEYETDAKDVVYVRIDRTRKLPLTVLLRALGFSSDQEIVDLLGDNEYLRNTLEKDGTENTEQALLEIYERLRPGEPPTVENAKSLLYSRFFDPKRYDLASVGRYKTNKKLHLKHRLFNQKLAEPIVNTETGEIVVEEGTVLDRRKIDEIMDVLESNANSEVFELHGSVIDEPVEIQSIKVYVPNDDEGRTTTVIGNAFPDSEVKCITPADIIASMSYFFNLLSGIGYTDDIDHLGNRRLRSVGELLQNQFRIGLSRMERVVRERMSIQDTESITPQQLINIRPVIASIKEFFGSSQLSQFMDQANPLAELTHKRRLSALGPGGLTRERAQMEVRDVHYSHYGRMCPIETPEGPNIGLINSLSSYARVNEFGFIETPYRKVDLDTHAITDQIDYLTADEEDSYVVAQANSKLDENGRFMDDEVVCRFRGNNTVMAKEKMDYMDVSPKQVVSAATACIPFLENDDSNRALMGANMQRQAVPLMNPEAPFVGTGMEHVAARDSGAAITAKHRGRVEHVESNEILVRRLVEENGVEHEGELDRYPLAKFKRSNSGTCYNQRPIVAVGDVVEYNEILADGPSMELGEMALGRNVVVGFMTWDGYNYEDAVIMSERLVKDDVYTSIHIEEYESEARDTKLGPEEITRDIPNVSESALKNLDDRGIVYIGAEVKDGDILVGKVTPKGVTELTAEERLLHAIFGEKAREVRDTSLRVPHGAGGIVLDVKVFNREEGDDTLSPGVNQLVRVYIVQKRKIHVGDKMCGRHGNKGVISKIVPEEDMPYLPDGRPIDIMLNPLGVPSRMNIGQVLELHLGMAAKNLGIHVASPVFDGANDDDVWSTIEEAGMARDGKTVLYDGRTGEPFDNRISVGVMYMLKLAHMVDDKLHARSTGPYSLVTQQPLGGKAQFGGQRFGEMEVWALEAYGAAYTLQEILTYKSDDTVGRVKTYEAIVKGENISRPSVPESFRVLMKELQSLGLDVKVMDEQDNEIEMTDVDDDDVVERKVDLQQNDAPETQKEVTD

[2] = 16 h, read-out: E. c(tolC) (bacterial MIC)
[3] = Table 1, enzyme not named, method uses E. coli RNA polymerase, read-out: IC50
[4] = Table 1, MIC, 16 hours at 37° C. in LB medium, read-out: S. au (bacterial MIC)
[5] = read-out: MIC (μM) E. coli (tolC)
[6] = Table 2, read-out: RNA-pol IC50 (μM) S. aureus
[7] = Table 2, read-out: MIC (μM) S. aureus
[8] = Table 2, read-out: RNA-pol IC50 (μM) E. coli

Structure (SMILES) | MIC (E. coli (tolC); [5]) | IC50 (RNA-pol S. aureus; [6]) | MIC (S. aureus; [7]) | other results
O=[N+]([O-])c1cc(C(=NO)Nc2ccccc2)ccc1Cl [Example 15] | – | – | – | MIC (B. su): > 125 µM; MIC (E. coli (tolC); [2]): > 125 µM; IC50 [1, 3]: 10 to 50 µM; MIC (S. aureus; [4]): > 125 µM
ON=C(Nc1ccccc1)c1ccc(F)c(C(F)(F)F)c1 [Example 16] | – | – | – | MIC (B. su): 40 to 125 µM (≈ 11.9 to 37.3 µg/mL); MIC (E. coli (tolC); [2]): < 40 µM; IC50 [1, 3]: 10 to 50 µM; MIC (S. aureus; [4]): > 125 µM
COCC1CCCN1c1cc(NC(=O)Nc2ccc(Cl)c(C(F)(F)F)c2)cc(C(F)(F)F)c1 (centres unmarked) [Compound 124] | > 125 µM | 10 to 50 µM | < 40 µM | –
O=C(Nc1cc(N2CCOCC2)cc(C(F)(F)F)c1)Nc1ccc(Cl)c(C(F)(F)F)c1 [Compound 125] | < 40 µM | 10 to 50 µM | < 40 µM | –
O=C(COc1ccc(Cl)cc1)Nc1cc(NC(=O)Nc2ccc(Cl)c(C(F)(F)F)c2)cc(C(F)(F)F)c1 [Compound 121] | > 125 µM | > 50 µM | < 40 µM | –
O=C(CSc1ccccc1)Nc1cc(COC(=O)Nc2ccc(Cl)c(C(F)(F)F)c2)cc(C(F)(F)F)c1 [Compound 139, (4-Chloro-3-trifluoromethyl-phenyl)-carbamic acid 3-(2-phenylsulfanyl-acetylamino)-5-trifluoromethyl benzyl ester] | < 40 µM | 10 to 50 µM | < 40 µM | –
ON=C(Nc1cccc(Cl)c1)c1ccc(Cl)cc1 [R′=4-Cl, R″=H, R′″=3-Cl] | – | – | – | MIC (B. su): 40 to 125 µM (≈ 11.2 to 35.1 µg/mL); MIC (E. coli (tolC); [2]): < 40 µM; IC50 [1, 3]: > 50 µM; MIC (S. aureus; [4]): 40 to 125 µM (≈ 11.2 to 35.1 µg/mL)
O=C(COc1ccc(Cl)cc1)Nc1cc(NCCNc2nc3cc(Cl)c(Cl)cc3[nH]2)cc(C(F)(F)F)c1 [Compound 131] | > 125 µM | < 10 µM | < 40 µM | –
[N-]=[N+]=Nc1cc(/C(=N/O)Nc2cccc(Cl)c2)cc(C(F)(F)F)c1F [Compound 115] | < 40 µM | > 50 µM | < 40 µM | IC50 [1, 8]: > 50 µM
O=C(Nc1cc(NS(=O)(=O)c2ccc(C(F)(F)F)cc2)cc(C(F)(F)F)c1)Nc1ccc(Cl)c(C(F)(F)F)c1 [Compound 122] | > 125 µM | 10 to 50 µM | < 40 µM | –
ON=C(Nc1cccc(Oc2ccccc2)c1)c1cccc(C(F)(F)F)c1 [R′=3-CF3, R″=H, R′″=3-OPh] | – | – | – | MIC (B. su): < 40 µM; MIC (E. coli (tolC); [2]): < 40 µM; IC50 [1, 3]: > 50 µM; MIC (S. aureus; [4]): < 40 µM
C=CCOc1cc(NC(=O)Nc2ccc(Cl)c(C(F)(F)F)c2)cc(C(F)(F)F)c1 [Compound 134] | > 125 µM | < 10 µM | – | MIC (S. aureus; read-out: MIC (μM) S. aureus): < 40 µM
O=C(Nc1cc(O)cc(C(F)(F)F)c1)Nc1ccc(Cl)c(C(F)(F)F)c1 [Compound 133, 1-(4-Chloro-3-trifluoromethyl-phenyl)-3-(3-hydroxy-5-trifluoromethyl-phenyl)-urea] | < 40 µM | 10 to 50 µM | < 40 µM | –
Nc1cc(/C(=N/O)Nc2cccc(Cl)c2)cc(C(F)(F)F)c1F [Compound 116] | < 40 µM | > 50 µM | < 40 µM | IC50 [1, 8]: < 10 µM
ON=C(Nc1cccc(Br)c1)c1cccc(C(F)(F)F)c1 [R′=3-CF3, R″=H, R′″=3-Br] | – | – | – | MIC (B. su): < 40 µM; MIC (E. coli (tolC); [2]): < 40 µM; IC50 [1, 3]: 10 to 50 µM; MIC (S. aureus; [4]): 40 to 125 µM (≈ 14.4 to 44.9 µg/mL)
COCOc1cc(NC(=O)Nc2ccc(Cl)c(C(F)(F)F)c2)cc(C(F)(F)F)c1 [Compound 132, 1-(4-Chloro-3-trifluoromethyl-phenyl)-3-(3-methoxymethoxy-5-trifluoromethyl-phenyl)-urea] | < 40 µM | 10 to 50 µM | < 40 µM | –
O=C(CNc1ccc(Cl)c(C(F)(F)F)c1)Nc1cc(NC(=O)COc2ccc(Cl)cc2)cc(C(F)(F)F)c1 [Compound 130] | > 125 µM | > 50 µM | < 40 µM | –
NS(=O)(=O)c1ccc(CCNc2ccc(C(=NO)Nc3cccc(Cl)c3)cc2C(F)(F)F)cc1 [Compound 114] | < 40 µM | – | < 40 µM | IC50 [1, 8]: < 10 µM; IC50 (RNA-pol S. aureus): > 50 µM
